In PubChem BioAssay (NCI):
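Each compound was tested at five concentrations against cells in 96-well plates for 48 hours. GI50 = concentration required for 50% inhibition of growth. TGI marks complete inhibition of growth.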

Legend:
Assay in all cases: growth of human tumour cells (NCI), 48 h
M14 melanoma = test system: M14 melanoma
SNB-75 CNS = test system: SNB-75 CNS
BT-549 breast = test system: BT-549 breast
IGROV1 ovarian = test system: IGROV1 ovarian
HL-60(TB) leukemia = test system: HL-60(TB) leukemia
COLO 205 colon = test system: COLO 205 colon
A549 NSCLC = test system: A549 NSCLC
SF-268 CNS = test system: SF-268 CNS
HOP-92 NSCLC = test system: HOP-92 NSCLC
SK-MEL-2 melanoma = test system: SK-MEL-2 melanoma
OVCAR-8 ovarian = test system: OVCAR-8 ovarian
786-0 renal = test system: 786-0 renal
HOP-62 NSCLC = test system: HOP-62 NSCLC
TK-10 renal = test system: TK-10 renal
OVCAR-3 ovarian = test system: OVCAR-3 ovarian
MDA-MB-231 breast = test system: MDA-MB-231 breast
K-562 leukemia = test system: K-562 leukemia
RXF 393 renal = test system: RXF 393 renal
LOX IMVI melanoma = test system: LOX IMVI melanoma
SR leukemia = test system: SR leukemia
CAKI-1 renal = test system: CAKI-1 renal
SN12C renal = test system: SN12C renal
MALME-3M melanoma = test system: MALME-3M melanoma
SK-MEL-5 melanoma = test system: SK-MEL-5 melanoma
HCT-15 colon = test system: HCT-15 colon
SNB-19 CNS = test system: SNB-19 CNS
NCI-H23 lung = test system: NCI-H23 lung
OVCAR-4 ovarian = test system: OVCAR-4 ovarian
UO-31 renal = test system: UO-31 renal
SK-OV-3 ovarian = test system: SK-OV-3 ovarian
HCC-2998 colon = test system: HCC-2998 colon
DU-145 prostate = test system: DU-145 prostate
HT29 colon = test system: HT29 colon
SF-295 CNS = test system: SF-295 CNS
KM12 colon = test system: KM12 colon
ACHN renal = test system: ACHN renal
SW-620 colon = test system: SW-620 colon
OVCAR-5 ovarian = test system: OVCAR-5 ovarian
EKVX NSCLC = test system: EKVX NSCLC
A498 renal = test system: A498 renal
UACC-62 melanoma = test system: UACC-62 melanoma
CCRF-CEM leukemia = test system: CCRF-CEM leukemia
NCI-H522 lung = test system: NCI-H522 lung
MOLT-4 leukemia = test system: MOLT-4 leukemia
RPMI-8226 leukemia = test system: RPMI-8226 leukemia
NCI/ADR-RES ovarian = test system: NCI/ADR-RES ovarian
U251 CNS = test system: U251 CNS
NCI-H226 lung = test system: NCI-H226 lung
MCF7 breast = test system: MCF7 breast
SF-539 CNS = test system: SF-539 CNS
PC-3 prostate = test system: PC-3 prostate
HCT-116 colon = test system: HCT-116 colon
NCI-H460 lung = test system: NCI-H460 lung
HS 578T breast = test system: HS 578T breast

COC(=O)[C@@H](C)C[C@H](Cc1ccccc1)NC(=O)c1nc([C@@H](C[C@H](C(C)C)N(C)C(=O)[C@@H](NC(=O)[C@H]2CCCCN2C)C(C)C)OC(C)=O)sc1C(C)C was tested. Which GI50 (M14 melanoma) did it give?
The GI50 was 3.38 nM.

What about the TGI (M14 melanoma) of the same compound?
The TGI was 12.7 nM.

What about the GI50 (SNB-75 CNS) of the same compound?
The GI50 was 3.88 nM.

And the TGI (SNB-75 CNS)?
The TGI was 9380 nM.

And the GI50 (BT-549 breast)?
The GI50 was less than 3.33 nM.

What about the TGI (BT-549 breast) of the same compound?
The TGI was 83.7 nM.

And the GI50 (IGROV1 ovarian)?
The GI50 was less than 3.33 nM.

What about the TGI (IGROV1 ovarian) of the same compound?
The TGI was greater than 11900 nM.

And the GI50 (HL-60(TB) leukemia)?
The GI50 was less than 3.33 nM.

What about the TGI (HL-60(TB) leukemia) of the same compound?
The TGI was less than 3.33 nM.

What about the GI50 (COLO 205 colon) of the same compound?
Its GI50 is 5.22 nM.

What about the TGI (COLO 205 colon) of the same compound?
Its TGI is 40.1 nM.

And the GI50 (A549 NSCLC)?
The GI50 was 18.7 nM.

And the TGI (A549 NSCLC)?
Its TGI is 15700 nM.

And the GI50 (SF-268 CNS)?
The GI50 was 18.4 nM.

And the TGI (SF-268 CNS)?
Its TGI is 7720 nM.

What about the GI50 (HOP-92 NSCLC) of the same compound?
Its GI50 is 219 nM.

And the TGI (HOP-92 NSCLC)?
The TGI was greater than 21600 nM.

What about the GI50 (SK-MEL-2 melanoma) of the same compound?
The GI50 was 5.03 nM.

What about the TGI (SK-MEL-2 melanoma) of the same compound?
The TGI was 5730 nM.

What about the GI50 (OVCAR-8 ovarian) of the same compound?
Its GI50 is 7.92 nM.

What about the TGI (OVCAR-8 ovarian) of the same compound?
The TGI was 8620 nM.

And the GI50 (786-0 renal)?
The GI50 was less than 3.33 nM.

And the TGI (786-0 renal)?
The TGI was 1060 nM.

And the GI50 (HOP-62 NSCLC)?
The GI50 was 12.9 nM.

What about the TGI (HOP-62 NSCLC) of the same compound?
Its TGI is 10400 nM.

What about the GI50 (TK-10 renal) of the same compound?
Its GI50 is 117 nM.

What about the TGI (TK-10 renal) of the same compound?
The TGI was 14400 nM.

What about the GI50 (OVCAR-3 ovarian) of the same compound?
Its GI50 is less than 3.33 nM.

What about the TGI (OVCAR-3 ovarian) of the same compound?
The TGI was 70.3 nM.

And the GI50 (MDA-MB-231 breast)?
Its GI50 is 9.02 nM.

And the TGI (MDA-MB-231 breast)?
The TGI was 2200 nM.

And the GI50 (K-562 leukemia)?
Its GI50 is less than 3.33 nM.

What about the TGI (K-562 leukemia) of the same compound?
The TGI was 5430 nM.

What about the GI50 (RXF 393 renal) of the same compound?
The GI50 was less than 3.33 nM.

And the TGI (RXF 393 renal)?
Its TGI is 7780 nM.

What about the GI50 (LOX IMVI melanoma) of the same compound?
Its GI50 is 7.91 nM.

What about the TGI (LOX IMVI melanoma) of the same compound?
Its TGI is 3930 nM.

And the GI50 (SR leukemia)?
The GI50 was less than 3.33 nM.

And the TGI (SR leukemia)?
Its TGI is greater than 15000 nM.

And the GI50 (CAKI-1 renal)?
Its GI50 is 4.83 nM.

What about the TGI (CAKI-1 renal) of the same compound?
The TGI was 5530 nM.

What about the GI50 (SN12C renal) of the same compound?
Its GI50 is 7.65 nM.

And the TGI (SN12C renal)?
The TGI was 4510 nM.

And the GI50 (MALME-3M melanoma)?
The GI50 was 42.4 nM.

And the TGI (MALME-3M melanoma)?
Its TGI is 5810 nM.

What about the GI50 (SK-MEL-5 melanoma) of the same compound?
The GI50 was less than 3.33 nM.

What about the TGI (SK-MEL-5 melanoma) of the same compound?
Its TGI is 44.9 nM.

What about the GI50 (HCT-15 colon) of the same compound?
The GI50 was 33.5 nM.

And the TGI (HCT-15 colon)?
Its TGI is 4430 nM.

What about the GI50 (SNB-19 CNS) of the same compound?
Its GI50 is less than 3.33 nM.

And the TGI (SNB-19 CNS)?
Its TGI is greater than 33300 nM.

And the GI50 (NCI-H23 lung)?
The GI50 was 9.65 nM.

And the TGI (NCI-H23 lung)?
Its TGI is 16100 nM.

What about the GI50 (OVCAR-4 ovarian) of the same compound?
Its GI50 is 10.3 nM.

What about the TGI (OVCAR-4 ovarian) of the same compound?
The TGI was greater than 33300 nM.

What about the GI50 (UO-31 renal) of the same compound?
Its GI50 is 15.4 nM.

What about the TGI (UO-31 renal) of the same compound?
The TGI was 5370 nM.

And the GI50 (SK-OV-3 ovarian)?
The GI50 was less than 3.33 nM.

What about the TGI (SK-OV-3 ovarian) of the same compound?
The TGI was 33100 nM.

What about the GI50 (HCC-2998 colon) of the same compound?
The GI50 was less than 3.33 nM.

And the TGI (HCC-2998 colon)?
Its TGI is 1440 nM.

And the GI50 (DU-145 prostate)?
Its GI50 is less than 3.33 nM.

What about the TGI (DU-145 prostate) of the same compound?
The TGI was 434 nM.

What about the GI50 (HT29 colon) of the same compound?
Its GI50 is less than 3.33 nM.

And the TGI (HT29 colon)?
The TGI was 583 nM.

What about the GI50 (SF-295 CNS) of the same compound?
Its GI50 is less than 3.33 nM.

What about the TGI (SF-295 CNS) of the same compound?
Its TGI is 276 nM.

And the GI50 (KM12 colon)?
Its GI50 is less than 3.33 nM.

What about the TGI (KM12 colon) of the same compound?
The TGI was 4200 nM.

What about the GI50 (ACHN renal) of the same compound?
Its GI50 is less than 3.33 nM.

What about the TGI (ACHN renal) of the same compound?
Its TGI is 7060 nM.

What about the GI50 (SW-620 colon) of the same compound?
Its GI50 is less than 3.33 nM.

And the TGI (SW-620 colon)?
The TGI was greater than 25700 nM.

What about the GI50 (OVCAR-5 ovarian) of the same compound?
Its GI50 is 13.6 nM.

What about the TGI (OVCAR-5 ovarian) of the same compound?
Its TGI is 16000 nM.

And the GI50 (EKVX NSCLC)?
The GI50 was 13.5 nM.

What about the TGI (EKVX NSCLC) of the same compound?
Its TGI is greater than 33300 nM.

What about the GI50 (A498 renal) of the same compound?
The GI50 was less than 3.33 nM.

And the TGI (A498 renal)?
Its TGI is 7.76 nM.

And the GI50 (UACC-62 melanoma)?
The GI50 was less than 3.33 nM.

And the TGI (UACC-62 melanoma)?
Its TGI is 32600 nM.

What about the GI50 (CCRF-CEM leukemia) of the same compound?
The GI50 was 7.93 nM.

And the TGI (CCRF-CEM leukemia)?
The TGI was greater than 33300 nM.

And the GI50 (NCI-H522 lung)?
The GI50 was less than 3.33 nM.

And the TGI (NCI-H522 lung)?
The TGI was 55 nM.

What about the GI50 (MOLT-4 leukemia) of the same compound?
The GI50 was 13.9 nM.

What about the TGI (MOLT-4 leukemia) of the same compound?
Its TGI is 14500 nM.

What about the GI50 (RPMI-8226 leukemia) of the same compound?
The GI50 was less than 3.33 nM.

And the TGI (RPMI-8226 leukemia)?
The TGI was 6960 nM.

And the GI50 (NCI/ADR-RES ovarian)?
The GI50 was 216 nM.

And the TGI (NCI/ADR-RES ovarian)?
The TGI was greater than 7800 nM.

What about the GI50 (U251 CNS) of the same compound?
Its GI50 is 12 nM.

And the TGI (U251 CNS)?
Its TGI is 8510 nM.

And the GI50 (NCI-H226 lung)?
Its GI50 is 12.2 nM.

And the TGI (NCI-H226 lung)?
The TGI was 1370 nM.

What about the GI50 (MCF7 breast) of the same compound?
Its GI50 is less than 3.33 nM.

What about the TGI (MCF7 breast) of the same compound?
The TGI was greater than 25600 nM.

And the GI50 (SF-539 CNS)?
Its GI50 is 7 nM.

And the TGI (SF-539 CNS)?
The TGI was 24.2 nM.

What about the GI50 (PC-3 prostate) of the same compound?
The GI50 was less than 3.33 nM.

And the TGI (PC-3 prostate)?
The TGI was greater than 33300 nM.

And the GI50 (HCT-116 colon)?
Its GI50 is less than 3.33 nM.

And the TGI (HCT-116 colon)?
The TGI was 476 nM.

What about the GI50 (NCI-H460 lung) of the same compound?
The GI50 was 4.5 nM.

And the TGI (NCI-H460 lung)?
The TGI was 3520 nM.

What about the GI50 (HS 578T breast) of the same compound?
Its GI50 is 5.03 nM.

What about the TGI (HS 578T breast) of the same compound?
The TGI was 1340 nM.
